Literature values, collected in US20040116329A1, “Inhibition of proteasomes to prevent restenosis” (priority 2004, published 2004).
Like-named read-outs stand apart in the source and are kept apart here.

Key:
[1] = given orally
apoptosis [2] = settings: through stabilization of proteins critical for cell cycle progression and control of apoptosis
SMC [3] = settings: in vitro
apoptosis [4] = settings: biologically relevant concentrations
SMC [5] = settings: in vitro; remark: listed apart in the source
neointimal accumulation = settings: in vivo, rat carotid artery injury model

Row | Compound | major side effects [1] | induction of apoptosis (apoptosis [2]) | activity in tumor treatment in combination (various tumors; in combination with standard chemotherapeutic agents or radiation) | volume of various tumors (various tumors; in vivo) | SMC proliferation (SMC [3]) | induction of apoptosis (apoptosis [4]) | platelet-derived growth factor-stimulated SMC migration (SMC [5]) | neointimal accumulation (neointimal accumulation)
1 | CC(C)C[C@H](NC(=O)[C@H](Cc1ccccc1)NC(=O)c1cnccn1)B(O)O [LDP-341] | gastrointestinal in nature | induce apoptosis | appears very active | effective in reducing the volume of various tumors |  |  |  | 
2 | CC(=O)O[C@H]1C(=O)[C@@]2(C)[C@H]([C@H](OC(=O)c3ccccc3)[C@]3(O)C[C@H](OC(=O)[C@H](O)[C@@H](NC(=O)c4ccccc4)c4ccccc4)C(C)=C1C3(C)C)[C@]1(OC(C)=O)CO[C@@H]1C[C@@H]2O [paclitaxel] |  |  |  |  | inhibited | does not appear to induce apoptosis | inhibited | inhibited neointimal accumulation
